Series [1] deals with mouse L 1210 leukemia. Put plainly: L1210 leukemia in mice: inoculum of 10^5 cells, single dose of compound 24 hours later. It is filed as in vivo. The settings on record: for % of killed cells / ILS (increased life span) % / Mean survival in days for treated mice: inoculum 10^5 L1210 cells; for Cured animals: cured/total; for Criterion (i): ILS higher than 100%: intraperitoneal injection of 10^5 cells. From the text:
The experimental tumor mouse L 1210 leukemia is commonly used to evaluate the effects of all the antitumor compounds now used in human therapeutics,as was described, for example, by C. C. ZUBROD in Proc. Nat. Acad. Sci. USA 69, 1972, pp. 1042-1047. This experimentally formed tumoral system permits very accurate quantitative evaluation of the activity of the compound tested and also, consequently, an objective comparison of the respective activities of various compounds, for example, according to the methods described by H. E. SKIPPER, F. M. SCHABEL Jr. and W. S. WILCOX in Cancer Chemiother. Rep. 1964, pp. 1-111 and 45, 1965, pp. 5-28.
(§1) The mice were randomized in each experimental series. A first routine experiment enable the death rate by toxicity to be determined and thus established the sublethal doses.
According to the convention in force in this field, the animals which survived longer than 45 days after inoculation of tumoral cells were considered to be cured.
(§2) To evaluate the therapeutic activity of the compounds of the invention, doses of said compound were expressed basing them on the 30 days sublethal dose which was fixed at 1.
A--A tumoral inoculum of 10^5 L1210 leukemia cells was administered by the intraperitoneal way to twenty 2 to 3 months old DBA/2 strain female mice. 24 hours later, half of said mice received a single intraperitoneal injection of a variable dose of the compound to be tested and the same volume of solvent was administered to the other half of the mice by the same way; this latter half of the group of mice was therefore used as the control series. The mice were randomized in each experimental series.
Animals surviving for longer than 45 days were considered to be cured.

Series [2] concerns mouse L 1210 leukemia. Described as above. Format: in vivo. The settings on record: for Criterion (iv): persistence of the antileukemic action after an intravenous injection: L1210 in vivo; for ILS (increased life span) %: I.V., dose 1 (the sublethal dose), inoculum 10^5 L1210 cells.
For series [3] the following is noted: for LDo (highest non lethal dose / sublethal dose) for mice: route not given; for DLo (I.P.): single i.p. injection.
Text: as §1, §2

The nature of series [4]: Solubility. It is filed as physicochemical.
Series [5] can be described thus: Metabolic studies in mice.
Setting [6] is: I.P., dose 0.1 of the sublethal dose.
The mark [7] stands for this setting: I.P., dose 1 (the sublethal dose).
[8] abbreviates: I.P., dose 0.005 of the sublethal dose.
Where [9] appears, read: I.P., dose 0.01 of the sublethal dose.
Where [10] appears, read: I.P., dose 0.02 of the sublethal dose.
[11] abbreviates: I.P., dose 0.3 of the sublethal dose.
Setting [12] is: I.P., dose 0.6 of the sublethal dose.
Where [13] appears, read: I.P., dose 0.002 of the sublethal dose.
[14] abbreviates: I.P., dose 0.2 of the sublethal dose.
[15] abbreviates: I.P., dose 0.5 of the sublethal dose.
[16] abbreviates: I.P., dose 0.05 of the sublethal dose.

Several values for one entry are separate records, joined by “and”; a condition that tells them apart may be missing. Equal entries are not always repeated. Where two headings read alike, the source gives them in different places.

Take “9-hydroxy-2(β-diisopropylamino-ethyl)-ellipticiniu acetate”: in series [1] (setting [6]), the “% of killed cells” value is reported as below 90%, the “ILS (increased life span) %” value is 110% and the “Mean survival in days for treated mice” value was determined as 10.7 days. In series [1] (setting [7]), the “% of killed cells” value is on record as below 90%, the “ILS (increased life span) %” value was 110% and the “Mean survival in days for treated mice” value is reported as 10.9 days. Also, in series [2], the “Criterion (iv): persistence of the antileukemic action after an intravenous injection” value (“Criterion (iv): persistence” below) is “+”.

Consider `CC(=O)Oc1ccc2c(c1)c1c(C)c3c[n+](C)ccc3c(C)c1n2C` [9-acetoxy-2,6-dimethyl-ellipticinium acetate], for which the “Antitumoral activity on L1210 leukemia (comparison in words)” value in series [1] (mouse, in vivo) is listed as “comparable with that of the 9-hydroxy-2,6-dimethyl-ellipticinium acetate”. Also, in series [3], the “LDo (highest non lethal dose / sublethal dose) for mice” value is given as 50 mg/kg.

`CC[n+]1ccc2c(C)c3[nH]c4ccc(OC(C)=O)cc4c3c(C)c2c1` [9-acetoxy-2-ethyl-ellipticinium acetate]: the “ILS (increased life span) %” value was 114% in series [1] (setting [8]); 134% in series [1] (setting [9]); 137% in series [1] (setting [10]); 157% in series [1] (setting [6]); 180% in series [1] (setting [11]); 191% in series [1] (setting [12]). Moreover, in series [1] (L1210 in vivo), the Chemotherapeutic index is 100. In series [1] (L1210 in vivo), the “Criterion (ii): occurrence of cured animals” value (“Criterion (ii): occurrence” below) is recorded as “+”. In series [1] (L1210 in vivo, dose LDo /3), the Cured animals is 3/20. The “DLo (I.P.)” value in series [3] (mice) is 50 mg/kg.

Consider `CCN(CC)CC[n+]1ccc2c(C)c3[nH]c4ccc(O)cc4c3c(C)c2c1` [9-hydroxy-2(β-diethylamino-ethyl)-ellipticinium acetate], for which the “ILS (increased life span) %” value in series [1] (setting [13]) came to 119%; in series [1] (setting [9]), 137%; in series [1] (setting [10]), 139%; in series [1] (setting [6]), 173%; in series [1] (setting [14]) it was 151%; in series [1] (setting [11]) it was 243%. Further, the “ILS (increased life span) %” value was 196% in series [1] (setting [15]) and 112% in series [2]. The same compound came in with a Chemotherapeutic index in series [1] (L1210 in vivo) of 100. Also, in series [1] (L1210 in vivo), the “Criterion (ii): occurrence” value is reported as “+”. Also, the Cured animals in series [1] (L1210 in vivo, dose LDo /2) is recorded as 6/20. Moreover, the “DLo (I.V.)” value in series [3] (mice, I.V.) was 5 mg/kg. In addition, the “DLo (I.P.)” value in series [3] (mice) was determined as 50 mg/kg.

For `Cc1c2cc[n+](CCN3CCCCC3)cc2c(C)c2c1[nH]c1ccc(O)cc12` [9-hydroxy-2(β-piperidino-ethyl)-ellipticinium acetate], the “ILS (increased life span) %” value worked out at 113% in series [1] (setting [13]); 119% in series [1] (setting [8]); 124% in series [1] (setting [9]); 131% in series [1] (setting [10]); 181% in series [1] (setting [6]); 202% in series [1] (setting [14]). Moreover, the “ILS (increased life span) %” value came to 171% in series [1] (setting [7]) and 131% in series [1] (I.V., dose 1 (the sublethal dose)). In addition, the Chemotherapeutic index in series [1] (L1210 in vivo) is on record as 100. The “Criterion (ii): occurrence” value in series [1] (L1210 in vivo) is listed as “+”. Besides, the “Increased life span (ILS)” value in series [1] (L1210 in vivo, dose LDo /5) was 102%. Also, in series [1] (L1210 in vivo, dose LDo), the Cured animals is 5/15. The “Criterion (i): ILS higher than 100%” value in series [1] (L1210 in vivo) is recorded as “+ (increased life span (ILS) higher than 100% after intraperitoneal injection of 10^5 cells)”. The “Criterion (iv): persistence” value in series [1] (L1210 in vivo, intravenous injection) was “+”. In addition, the “DLo (I.V.)” value in series [3] (mice, I.V.) was determined as 10 mg/kg. For the same compound, the “DLo (I.P.)” value in series [3] (mice) was 50 mg/kg.

As to `CCn1c2ccc(O)cc2c2c(C)c3c[n+](CC)ccc3c(C)c21` [9-hydroxy-2,6-diethyl-ellipticinium acetate], the “Solubility” value in series [4] is “well water soluble”; in series [4] (water, read-out: Concentration of easily prepared aqueous solution), 4000 µg/mL.

On to `Cc1c2c[n+](C)ccc2c(C)c2c1c1cc(O)ccc1n2C` [9-hydroxy-2,6-dimethyl-ellipticinium acetate], for which the Therapeutic index result in series [1] (L1210) is “extremely high”. The “LDo (highest non lethal dose / sublethal dose) for mice” value in series [3] turned out to be 50 mg/kg.

As for `CC[n+]1ccc2c(C)c3[nH]c4ccc(O)cc4c3c(C)c2c1` [9-hydroxy-2-ethyl ellipticinium acetate, 9-hydroxy-2-ethyl-ellipticinium acetate], the “ILS (increased life span) %” value in series [1] (setting [13]) was found to be 114%; in series [1] (setting [9]), 122%; in series [1] (setting [10]) it was 132%; in series [1] (setting [16]), 132%; in series [1] (setting [6]), 175%; in series [1] (setting [14]), 219%. The “ILS (increased life span) %” value in series [1] (I.P., dose 0.4 of the sublethal dose) is 165%; in series [1] (setting [12]) it was 188%; in series [1] (setting [7]), 157%; in series [1] (I.V., dose 0.33 of the sublethal dose), 118%; in series [2], 124%. Further, the Chemotherapeutic index in series [1] (L1210 in vivo) came to 75. For the same compound, the “Criterion (ii): occurrence” value in series [1] (L1210 in vivo) is recorded as “+”. For the same compound, the “Increased life span (ILS)” value in series [1] (L1210 in vivo, dose LDo /5) is reported as 119%. Further, the Cured animals in series [1] (L1210 in vivo, dose LDo /5) is reported as 3/20. Moreover, the “Criterion (i): ILS higher than 100%” value in series [1] (L1210 in vivo) is reported as “+ (increased life span (ILS) higher than 100% after intraperitoneal injection of 10^5 cells)”. In addition, the “DL100 (I.P.)” value in series [3] (mice, I.P.) is reported as 100 mg/kg. Further, the “DL 100 (I.V.)” value in series [3] (mice, I.V.) was determined as 20 mg/kg. Besides, the “DLo (I.V.)” value in series [3] (mice, I.V.) is given as 15 mg/kg. In addition, the “DLo (I.P.)” value in series [3] (mice) is 50 mg/kg. Moreover, the “Criterion (iv): persistence” value in series [2] is “+”.

Consider `Cc1c2cc[n+](CCO)cc2c(C)c2c1[nH]c1ccc(O)cc12` [9-hydroxy-2-hydroxyethyl-ellipticinium acetate], for which the “ILS (increased life span) %” value is 115% in series [1] (setting [9]); 133% in series [1] (setting [16]); 159% and 151% in series [1] (setting [6]); 217% in series [1] (setting [15]); 197% in series [1] (setting [7]); 282% in series [1] (I.P., dose 1.5 of the sublethal dose). Further, the “ILS (increased life span) %” value in series [1] (I.V., dose 0.25 of the sublethal dose) is given as 121%; in series [1] (I.V., dose 0.5 of the sublethal dose), 140%; in series [1] (I.V., dose 2 × 0.5 of the sublethal dose), 142%; in series [1] (I.V., dose 3 × 0.25 of the sublethal dose) it was 125%; in series [2], 146%. Further, the “Criterion (ii): occurrence” value in series [1] (L1210 in vivo) is recorded as “+”. Also, in series [1] (L1210 in vivo, dose LDo /2), the “Increased life span (ILS)” value is on record as 117%. For the same compound, the Cured animals in series [1] (L1210 in vivo, dose LDo /2) is 2/15. For the same compound, in series [1] (L1210 in vivo), the “Criterion (i): ILS higher than 100%” value is “+ (increased life span (ILS) higher than 100% after intraperitoneal injection of 10^5 cells)”. Also, the “DLo (I.V.)” value in series [3] (mice, I.V.) was determined as 20 mg/kg. In addition, the “DLo (I.P.)” value in series [3] (mice) was determined as 10 mg/kg. Besides, the “Criterion (iv): persistence” value in series [2] is recorded as “+”.

Take `CC[n+]1ccc2c(C)c3c(c(C)c2c1)c1cc(O)ccc1n3C` [9-hydroxy-6-methyl-2-ethyl-ellipticinium acetate]: the “ILS (increased life span) %” value in series [1] (setting [6]) stood at 127%; in series [1] (setting [14]), 178%; in series [1] (setting [12]), 202%; in series [2], 115%. The “Increased life span (ILS)” value in series [1] (L1210 in vivo, dose ≈ LDo /2) came to 102%. Also, in series [1] (L1210 in vivo), the “Criterion (i): ILS higher than 100%” value was “+ (increased life span (ILS) higher than 100% after intraperitoneal injection of 10^5 cells)”. Besides, the “DLo (I.V.)” value in series [3] (mice, I.V.) was found to be 5 mg/kg. Besides, the “DLo (I.P.)” value in series [3] (mice) is given as 50 mg/kg.

Consider `Cc1c2c[n+](C)ccc2c(C)c2c1c1cc(O)ccc1n2C` [9-hydroxy-6-methyl-ellipticinium iodomethylate], for which the “Solubility” value in series [4] is “much more soluble than the 9-hydroxy-ellipticinium iodomethylate”.

`Cc1c2ccncc2c(C)c2c1[nH]c1ccccc12` [ellipticine]: in series [5], the Metabolism result was “hydroxylated in the 9-position and then glucuroconjugated”.

The values above are taken from patent US4483989A, “Synthesis of pyrido[4,3-b]carbazole derivatives” (priority 1973, dated 1984).
